Assay results: ChEMBL document CHEMBL4507261, “Data for DCP probe A-192621” (2021); call rule not given here

Legend:
[1] = target: RAC-gamma serine/threonine-protein kinase (Homo sapiens) (UniProt Q9Y243); conditions: Compound concentration 1000.0 nM
[2] = target: Atypical kinase COQ8A, mitochondrial (Homo sapiens) (UniProt Q8NI60); conditions: Compound concentration 1000.0 nM
[3] = target: Receptor-interacting serine/threonine-protein kinase 2 (Homo sapiens) (UniProt O43353); conditions: Compound concentration 1000.0 nM
[4] = target: 5-hydroxytryptamine receptor 2A (Homo sapiens) (UniProt P28223); assay: 5-HT2A (h) Eurofins-Cerep binding assay; design: ligand concentration 0.5 nM; conditions: filed as antagonist, Compound concentration 10.0 uM
[5] = target: Endothelin-1 receptor (Homo sapiens) (UniProt P25101); conditions: filed as agonist, Compound concentration 10.0 uM
[6] = target: T1, Alpha-1A adrenergic receptor (Homo sapiens) (UniProt P35348); assay: Alpha1A (h) Eurofins-Cerep binding assay; design: ligand concentration 0.1 nM; conditions: filed as antagonist, Compound concentration 10.0 uM
T1 sequence (whole entry): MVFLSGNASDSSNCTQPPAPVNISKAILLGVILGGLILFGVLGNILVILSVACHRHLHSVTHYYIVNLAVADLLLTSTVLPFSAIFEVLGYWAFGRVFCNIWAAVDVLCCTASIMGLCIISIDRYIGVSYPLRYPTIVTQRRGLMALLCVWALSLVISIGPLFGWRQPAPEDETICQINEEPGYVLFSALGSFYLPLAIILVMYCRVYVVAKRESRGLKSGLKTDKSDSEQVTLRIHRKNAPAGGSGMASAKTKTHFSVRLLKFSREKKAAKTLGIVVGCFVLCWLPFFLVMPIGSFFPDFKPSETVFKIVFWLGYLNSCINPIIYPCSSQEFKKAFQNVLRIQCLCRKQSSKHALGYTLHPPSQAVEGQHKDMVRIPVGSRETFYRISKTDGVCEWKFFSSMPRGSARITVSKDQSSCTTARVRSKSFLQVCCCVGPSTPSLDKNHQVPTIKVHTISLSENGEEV

[7] = tested on: Mast/stem cell growth factor receptor Kit (Homo sapiens), P10721 [V559D]; conditions: Compound concentration 1000.0 nM
[8] = target: Bone morphogenetic protein receptor type-1A (Homo sapiens) (UniProt P36894); conditions: Compound concentration 1000.0 nM
[9] = tested on: Phosphatidylinositol 4,5-bisphosphate 3-kinase catalytic subunit alpha isoform (Homo sapiens), P42336 [E545K]; conditions: Compound concentration 1000.0 nM
[10] = target: Mitogen-activated protein kinase kinase kinase 14 (Homo sapiens) (UniProt Q99558); conditions: Compound concentration 1000.0 nM
[11] = tested on: Mast/stem cell growth factor receptor Kit (Homo sapiens), P10721 [V559D,V654A]; conditions: Compound concentration 1000.0 nM
[12] = target: Serine/threonine-protein kinase Chk2 (Homo sapiens) (UniProt O96017); conditions: Compound concentration 1000.0 nM
[13] = target: Tyrosine-protein kinase Srms (Homo sapiens) (UniProt Q9H3Y6); conditions: Compound concentration 1000.0 nM
[14] = target: Beta-adrenergic receptor kinase 1 (Homo sapiens) (UniProt P25098); conditions: Compound concentration 1000.0 nM
Chain of Beta-adrenergic receptor kinase 1 (Homo sapiens) (P25098 whole entry): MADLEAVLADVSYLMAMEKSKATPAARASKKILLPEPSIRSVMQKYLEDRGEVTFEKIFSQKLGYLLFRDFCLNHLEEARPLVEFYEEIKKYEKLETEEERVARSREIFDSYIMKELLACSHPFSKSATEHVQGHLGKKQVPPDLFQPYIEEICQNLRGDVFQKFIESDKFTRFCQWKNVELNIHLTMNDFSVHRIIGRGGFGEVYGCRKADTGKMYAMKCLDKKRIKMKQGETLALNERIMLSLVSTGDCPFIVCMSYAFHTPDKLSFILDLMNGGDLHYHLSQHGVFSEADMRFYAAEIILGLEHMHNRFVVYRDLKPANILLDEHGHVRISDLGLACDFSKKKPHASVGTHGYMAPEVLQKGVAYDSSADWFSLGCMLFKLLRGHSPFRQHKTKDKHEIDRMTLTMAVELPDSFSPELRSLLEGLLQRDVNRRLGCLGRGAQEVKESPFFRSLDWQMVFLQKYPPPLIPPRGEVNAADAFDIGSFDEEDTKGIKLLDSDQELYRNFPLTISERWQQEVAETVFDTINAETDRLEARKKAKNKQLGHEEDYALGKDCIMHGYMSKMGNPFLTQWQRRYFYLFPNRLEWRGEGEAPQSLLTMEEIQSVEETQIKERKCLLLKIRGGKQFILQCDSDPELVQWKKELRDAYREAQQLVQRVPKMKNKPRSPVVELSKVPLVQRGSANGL

Endothelin-1 receptor = target: T2, Endothelin-1 receptor (Homo sapiens, UniProt P25101); assay: Eurofins cellular functional assay - Antagonist (EDNRA)
T2 sequence (P25101 whole entry): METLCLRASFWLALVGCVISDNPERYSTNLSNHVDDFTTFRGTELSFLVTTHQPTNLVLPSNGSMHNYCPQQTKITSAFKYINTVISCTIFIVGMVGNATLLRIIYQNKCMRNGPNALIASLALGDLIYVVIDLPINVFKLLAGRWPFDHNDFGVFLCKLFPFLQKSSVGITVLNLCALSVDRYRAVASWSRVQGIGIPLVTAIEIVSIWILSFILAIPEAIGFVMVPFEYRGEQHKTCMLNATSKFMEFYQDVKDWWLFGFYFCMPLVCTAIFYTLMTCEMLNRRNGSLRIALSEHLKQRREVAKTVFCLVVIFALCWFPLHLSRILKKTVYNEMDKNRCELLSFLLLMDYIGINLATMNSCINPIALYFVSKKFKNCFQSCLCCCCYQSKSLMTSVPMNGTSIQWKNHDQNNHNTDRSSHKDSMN

[15] = target: Serine/threonine-protein kinase PAK 2 (Homo sapiens) (UniProt Q13177); conditions: Compound concentration 1000.0 nM
[16] = target: Ribosomal protein S6 kinase alpha-5 (Homo sapiens) (UniProt O75582); conditions: Compound concentration 1000.0 nM
[17] = target: Ephrin type-B receptor 4 (Homo sapiens) (UniProt P54760); conditions: Compound concentration 1000.0 nM
Chain of Ephrin type-B receptor 4 (Homo sapiens) (P54760 whole entry): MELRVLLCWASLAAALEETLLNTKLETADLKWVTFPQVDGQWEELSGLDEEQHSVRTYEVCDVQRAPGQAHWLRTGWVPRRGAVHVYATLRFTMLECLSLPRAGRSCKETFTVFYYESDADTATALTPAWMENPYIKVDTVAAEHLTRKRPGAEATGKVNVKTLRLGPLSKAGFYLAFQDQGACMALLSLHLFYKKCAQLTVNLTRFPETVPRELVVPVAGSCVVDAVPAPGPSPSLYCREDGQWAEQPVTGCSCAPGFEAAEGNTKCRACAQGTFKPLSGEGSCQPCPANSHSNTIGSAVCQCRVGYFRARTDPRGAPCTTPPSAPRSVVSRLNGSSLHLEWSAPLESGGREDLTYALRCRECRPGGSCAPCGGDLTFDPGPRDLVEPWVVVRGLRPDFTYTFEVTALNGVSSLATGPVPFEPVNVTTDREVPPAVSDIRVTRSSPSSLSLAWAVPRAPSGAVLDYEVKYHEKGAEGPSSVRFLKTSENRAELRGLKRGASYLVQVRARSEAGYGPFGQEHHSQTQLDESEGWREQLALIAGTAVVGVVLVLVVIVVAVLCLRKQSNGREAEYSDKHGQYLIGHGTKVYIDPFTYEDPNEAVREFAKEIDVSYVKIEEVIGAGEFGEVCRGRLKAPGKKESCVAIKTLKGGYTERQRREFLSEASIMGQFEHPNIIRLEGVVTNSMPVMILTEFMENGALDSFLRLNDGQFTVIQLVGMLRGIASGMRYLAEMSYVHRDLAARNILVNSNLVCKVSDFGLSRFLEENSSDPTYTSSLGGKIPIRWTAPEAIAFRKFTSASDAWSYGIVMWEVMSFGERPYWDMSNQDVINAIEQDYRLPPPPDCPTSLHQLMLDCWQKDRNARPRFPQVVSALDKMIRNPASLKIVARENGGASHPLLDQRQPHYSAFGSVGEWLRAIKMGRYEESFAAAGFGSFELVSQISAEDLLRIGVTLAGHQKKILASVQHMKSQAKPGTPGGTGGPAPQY

[18] = target: Serine/threonine-protein kinase PAK 6 (Homo sapiens) (UniProt Q9NQU5); conditions: Compound concentration 1000.0 nM
[19] = target: cAMP-dependent protein kinase catalytic subunit alpha (Homo sapiens) (UniProt P17612); conditions: Compound concentration 1000.0 nM
[20] = target: Serine/threonine-protein kinase D2 (Homo sapiens) (UniProt Q9BZL6); conditions: Compound concentration 1000.0 nM
[21] = target: Calcium/calmodulin-dependent protein kinase kinase 2 (Homo sapiens) (UniProt Q96RR4); conditions: Compound concentration 1000.0 nM
[22] = target: 5-hydroxytryptamine receptor 2B (Homo sapiens) (UniProt P41595); assay: 5-HT2B (h) Eurofins-Cerep binding assay; design: ligand concentration 0.2 nM; conditions: filed as agonist, Compound concentration 10.0 uM
Chain of 5-hydroxytryptamine receptor 2B (Homo sapiens) (P41595 whole entry): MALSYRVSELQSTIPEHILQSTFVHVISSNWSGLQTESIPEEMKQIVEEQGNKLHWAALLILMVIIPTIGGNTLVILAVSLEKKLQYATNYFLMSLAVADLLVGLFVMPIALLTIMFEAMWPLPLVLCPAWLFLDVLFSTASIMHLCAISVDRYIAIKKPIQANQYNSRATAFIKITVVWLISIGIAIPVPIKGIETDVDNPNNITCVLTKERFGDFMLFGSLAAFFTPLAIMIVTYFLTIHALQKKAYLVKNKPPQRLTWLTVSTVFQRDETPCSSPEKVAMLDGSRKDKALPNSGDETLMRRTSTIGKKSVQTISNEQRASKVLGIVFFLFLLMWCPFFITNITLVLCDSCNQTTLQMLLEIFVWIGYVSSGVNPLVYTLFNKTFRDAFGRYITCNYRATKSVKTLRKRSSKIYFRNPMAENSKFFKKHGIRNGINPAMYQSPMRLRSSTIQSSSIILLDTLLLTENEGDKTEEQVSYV

[23] = target: Mitogen-activated protein kinase kinase kinase 3 (Homo sapiens) (UniProt Q99759); conditions: Compound concentration 1000.0 nM
[24] = target: Beta-2 adrenergic receptor (Homo sapiens) (UniProt P07550); assay: Beta2 (h) Eurofins-Cerep binding assay; design: ligand concentration 0.3 nM; conditions: filed as antagonist, Compound concentration 10.0 uM
Chain of Beta-2 adrenergic receptor (Homo sapiens) (P07550 whole entry, looked up): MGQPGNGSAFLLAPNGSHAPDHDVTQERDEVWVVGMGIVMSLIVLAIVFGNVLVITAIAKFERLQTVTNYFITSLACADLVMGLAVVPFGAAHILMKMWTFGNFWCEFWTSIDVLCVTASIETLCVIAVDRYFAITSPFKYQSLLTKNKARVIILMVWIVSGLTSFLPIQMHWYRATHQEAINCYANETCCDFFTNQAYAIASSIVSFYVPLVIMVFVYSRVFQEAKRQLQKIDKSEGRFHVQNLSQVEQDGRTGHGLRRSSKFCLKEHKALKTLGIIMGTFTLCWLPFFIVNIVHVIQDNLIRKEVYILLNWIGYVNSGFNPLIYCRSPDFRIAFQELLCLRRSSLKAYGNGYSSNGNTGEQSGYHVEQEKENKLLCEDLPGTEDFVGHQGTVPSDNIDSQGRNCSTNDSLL

[25] = target: Hepatocyte growth factor receptor (Homo sapiens) (UniProt P08581); conditions: Compound concentration 1000.0 nM
Chain of Hepatocyte growth factor receptor (Homo sapiens) (P08581 whole entry): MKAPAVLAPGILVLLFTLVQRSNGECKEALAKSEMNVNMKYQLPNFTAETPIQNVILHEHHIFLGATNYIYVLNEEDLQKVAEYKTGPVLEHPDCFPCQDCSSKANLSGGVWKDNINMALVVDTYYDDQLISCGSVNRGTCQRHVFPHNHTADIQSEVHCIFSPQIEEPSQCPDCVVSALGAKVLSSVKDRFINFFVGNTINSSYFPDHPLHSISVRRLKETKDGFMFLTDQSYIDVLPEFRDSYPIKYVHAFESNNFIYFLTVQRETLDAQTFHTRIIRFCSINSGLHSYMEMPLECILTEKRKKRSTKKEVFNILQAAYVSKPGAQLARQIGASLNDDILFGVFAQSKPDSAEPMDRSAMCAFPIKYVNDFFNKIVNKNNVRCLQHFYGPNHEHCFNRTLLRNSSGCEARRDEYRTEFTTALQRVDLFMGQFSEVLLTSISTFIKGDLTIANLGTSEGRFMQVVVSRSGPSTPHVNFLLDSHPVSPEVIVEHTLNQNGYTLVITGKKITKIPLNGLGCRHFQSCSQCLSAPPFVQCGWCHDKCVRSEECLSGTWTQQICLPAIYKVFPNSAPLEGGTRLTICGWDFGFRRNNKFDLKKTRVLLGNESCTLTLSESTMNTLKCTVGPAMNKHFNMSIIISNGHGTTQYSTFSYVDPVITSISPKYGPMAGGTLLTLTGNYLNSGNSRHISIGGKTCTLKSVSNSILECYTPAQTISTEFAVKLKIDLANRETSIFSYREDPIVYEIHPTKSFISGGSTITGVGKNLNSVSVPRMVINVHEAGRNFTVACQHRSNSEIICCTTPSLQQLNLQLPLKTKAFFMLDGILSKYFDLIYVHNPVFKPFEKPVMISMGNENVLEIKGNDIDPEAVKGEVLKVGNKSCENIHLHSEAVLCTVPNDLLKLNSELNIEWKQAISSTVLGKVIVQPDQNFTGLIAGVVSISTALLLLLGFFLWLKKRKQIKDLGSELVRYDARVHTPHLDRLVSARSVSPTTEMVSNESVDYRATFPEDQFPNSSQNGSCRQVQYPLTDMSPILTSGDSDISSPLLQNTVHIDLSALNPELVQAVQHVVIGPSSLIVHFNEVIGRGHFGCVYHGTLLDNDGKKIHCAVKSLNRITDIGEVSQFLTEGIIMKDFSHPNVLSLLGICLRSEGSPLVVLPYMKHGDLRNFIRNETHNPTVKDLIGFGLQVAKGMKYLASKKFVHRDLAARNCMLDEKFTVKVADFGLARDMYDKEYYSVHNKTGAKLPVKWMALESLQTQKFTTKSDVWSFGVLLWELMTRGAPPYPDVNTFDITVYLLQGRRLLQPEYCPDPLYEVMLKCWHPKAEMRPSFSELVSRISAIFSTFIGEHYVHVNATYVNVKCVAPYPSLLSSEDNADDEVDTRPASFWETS

[26] = target: Prostaglandin G/H synthase 2 (Homo sapiens) (UniProt P35354); assay: COX2(h) Eurofins-Cerep enzyme and uptake assay; conditions: Compound concentration 10.0 uM
[27] = target: Mitogen-activated protein kinase kinase kinase kinase 5 (Homo sapiens) (UniProt Q9Y4K4); conditions: Compound concentration 1000.0 nM
[28] = target: Activin receptor type-1-like (Homo sapiens) (UniProt P37023); conditions: Compound concentration 1000.0 nM
[29] = target: Serine/threonine-protein kinase Nek7 (Homo sapiens) (UniProt Q8TDX7); conditions: Compound concentration 1000.0 nM
Chain of Serine/threonine-protein kinase Nek7 (Homo sapiens) (Q8TDX7 whole entry, looked up): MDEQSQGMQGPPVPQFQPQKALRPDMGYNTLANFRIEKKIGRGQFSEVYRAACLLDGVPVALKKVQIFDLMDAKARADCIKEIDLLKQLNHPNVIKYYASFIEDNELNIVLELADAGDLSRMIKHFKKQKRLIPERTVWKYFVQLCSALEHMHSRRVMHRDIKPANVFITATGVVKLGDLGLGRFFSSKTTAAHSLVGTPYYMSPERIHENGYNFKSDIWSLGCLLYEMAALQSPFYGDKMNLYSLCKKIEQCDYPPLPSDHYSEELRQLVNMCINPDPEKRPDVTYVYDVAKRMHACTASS

[30] = target: Cyclin-G-associated kinase (Homo sapiens) (UniProt O14976); conditions: Compound concentration 1000.0 nM
[31] = target: Mitogen-activated protein kinase kinase kinase 6 (Homo sapiens) (UniProt O95382); conditions: Compound concentration 1000.0 nM
[32] = target: Serine/threonine-protein kinase tousled-like 2 (Homo sapiens) (UniProt Q86UE8); conditions: Compound concentration 1000.0 nM
Chain of Serine/threonine-protein kinase tousled-like 2 (Homo sapiens) (Q86UE8 whole entry, looked up): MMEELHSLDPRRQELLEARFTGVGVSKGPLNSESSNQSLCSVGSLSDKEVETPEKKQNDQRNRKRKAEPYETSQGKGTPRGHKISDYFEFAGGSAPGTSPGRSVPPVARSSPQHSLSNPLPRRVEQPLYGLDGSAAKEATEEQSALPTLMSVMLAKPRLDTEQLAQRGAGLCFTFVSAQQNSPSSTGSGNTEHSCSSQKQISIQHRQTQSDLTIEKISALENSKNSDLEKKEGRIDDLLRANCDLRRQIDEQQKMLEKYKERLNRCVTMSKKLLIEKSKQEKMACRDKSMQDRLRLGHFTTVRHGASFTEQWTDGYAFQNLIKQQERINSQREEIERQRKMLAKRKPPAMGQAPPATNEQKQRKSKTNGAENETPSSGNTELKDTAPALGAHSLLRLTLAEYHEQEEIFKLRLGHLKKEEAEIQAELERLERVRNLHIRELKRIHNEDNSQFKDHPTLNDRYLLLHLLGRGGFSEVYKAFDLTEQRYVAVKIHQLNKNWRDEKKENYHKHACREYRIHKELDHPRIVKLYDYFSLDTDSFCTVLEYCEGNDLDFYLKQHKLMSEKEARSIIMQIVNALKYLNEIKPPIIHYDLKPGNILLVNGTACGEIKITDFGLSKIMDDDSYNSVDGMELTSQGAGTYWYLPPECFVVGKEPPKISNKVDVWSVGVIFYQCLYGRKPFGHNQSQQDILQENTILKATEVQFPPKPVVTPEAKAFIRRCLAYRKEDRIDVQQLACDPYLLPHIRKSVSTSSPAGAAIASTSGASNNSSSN

Row | SMILES | residual activity [1] [%] | residual activity [2] [%] | residual activity [3] [%] | % Inhibition of Control Specific Binding (Mean n=2) [4] [%] | % Inhibition of Control Specific Binding (Mean n=2) [5] [%] | % Inhibition of Control Specific Binding (Mean n=2) [6] [%] | residual activity [7] [%] | residual activity [8] [%] | residual activity [9] [%] | residual activity [10] [%] | residual activity [11] [%] | residual activity [12] [%] | residual activity [13] [%] | residual activity [14] [%] | IC50 (Endothelin-1 receptor) | residual activity [15] [%] | residual activity [16] [%] | residual activity [17] [%] | residual activity [18] [%] | residual activity [19] [%] | other results
1 | CCCOc1ccc([C@H]2[C@H](C(=O)O)[C@@H](c3ccc4c(c3)OCO4)CN2CC(=O)Nc2c(CC)cccc2CC)cc1 [A-192621] | 82 | 100 | 100 | 5.5 | 97.1 | 5 | 87 | 100 | 61 | 85 | 98 | 88 | 63 | 51 | 3.6 µM (not active) | 94 | 89 | 100 | 68 | 100 | residual activity [20]: 84%; residual activity [21]: 93%; % Inhibition of Control Specific Binding (Mean n=2) [22]: -1.9%; residual activity [23]: 74%; % Inhibition of Control Specific Binding (Mean n=2) [24]: -0.2%; residual activity [25]: 100%; % Inhibition of Control Values (Mean n=2) [26]: 44%; residual activity [27]: 93%; residual activity [28]: 99%; residual activity [29]: 96%; residual activity [30]: 93%; residual activity [31]: 65%; residual activity [32]: 94%
2 | CCCOc1ccc([C@@H]2[C@@H](C(=O)O)[C@H](c3ccc4c(c3)OCO4)CN2CC(=O)Nc2c(CC)cccc2CC)cc1 [A-1806262] | 100 | 100 | 84 | -2.9 | 63.7 | 3.7 | 93 | 89 | 68 | 82 | 94 | 98 | 90 | 89 | 1.6 µM (not active) | 100 | 97 | 96 | 83 | 100 | residual activity [20]: 100%; residual activity [21]: 84%; % Inhibition of Control Specific Binding (Mean n=2) [22]: -16.5%; residual activity [23]: 85%; % Inhibition of Control Specific Binding (Mean n=2) [24]: 3.6%; residual activity [25]: 92%; % Inhibition of Control Values (Mean n=2) [26]: 34%; residual activity [27]: 95%; residual activity [28]: 100%; residual activity [29]: 100%; residual activity [30]: 98%; residual activity [31]: 77%; residual activity [32]: 100%
